Tested on: 857933-349-R-J2-PDC complex spheroids, viability
Test: Anticancer human tumor 857933-349-R-J2-PDC patient-derived colon adenocarcinoma cell line growth inhibition [GQUAD]
Settings: for IC50: curve of first compound; for viability, T/C: stronger effect = lower value
Summary of the method: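 Viability of tumor cells grown as complex spheroids with endothelial and stromal cells, exposed to drug combinations. Top concentration at or near clinical Cmax (else 10 microM), diluted in half-log increments.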

[1] = second compound 0.0316 µM, first compound 0.0316 µM
[2] = second compound 0.0316 µM, first compound 0.316 µM
[3] = second compound 0.1 µM, first compound 0.0316 µM
[4] = second compound 0.1 µM, first compound 0.316 µM
[5] = second compound 0.316 µM, first compound 0.0316 µM
[6] = second compound 0.316 µM, first compound 0.316 µM
[7] = second compound 1 µM, first compound 0.0316 µM
[8] = second compound 1 µM, first compound 0.316 µM
[9] = second compound 3.16 µM, first compound 0.0316 µM
[10] = second compound 3.16 µM, first compound 0.316 µM
[11] = second compound 10 µM, first compound 0.0316 µM
[12] = second compound 10 µM, first compound 0.316 µM
[13] = second compound 0.0316 µM, first compound 0.1 µM
[14] = second compound 0.0316 µM, first compound 1 µM
[15] = second compound 0.0316 µM, first compound 3.16 µM
[16] = second compound 0.0316 µM, first compound 10 µM
[17] = second compound 0.1 µM, first compound 0.1 µM
[18] = second compound 0.1 µM, first compound 1 µM
[19] = second compound 0.1 µM, first compound 3.16 µM
[20] = second compound 0.1 µM, first compound 10 µM
[21] = second compound 0.316 µM, first compound 0.1 µM
[22] = second compound 0.316 µM, first compound 1 µM
[23] = second compound 0.316 µM, first compound 3.16 µM
[24] = second compound 0.316 µM, first compound 10 µM
[25] = second compound 1 µM, first compound 0.1 µM
[26] = second compound 1 µM, first compound 1 µM
[27] = second compound 1 µM, first compound 3.16 µM
[28] = second compound 1 µM, first compound 10 µM
[29] = second compound 3.16 µM, first compound 0.1 µM
[30] = second compound 3.16 µM, first compound 1 µM
[31] = second compound 3.16 µM, first compound 3.16 µM
[32] = second compound 3.16 µM, first compound 10 µM
[33] = second compound 10 µM, first compound 0.1 µM
[34] = second compound 10 µM, first compound 1 µM
[35] = second compound 10 µM, first compound 3.16 µM
[36] = second compound 10 µM, first compound 10 µM
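Further: spheroids exposed to compounds for one week before readout.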
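Wherever viability, T/C is given: percent viability relative to vehicle DMSO wells taken as 100%.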

Structure (SMILES): CCc1c2c(nc3ccc(O)cc13)-c1cc3c(c(=O)n1C2)COC(=O)[C@]3(O)CC + CN(C)c1ccc(Nc2c3ccc(NC(=O)CCN4CCCC4)cc3nc3cc(NC(=O)CCN4CCCC4)ccc23)cc1
- IC50 (second compound 0.0316 µM): 16.1 nM
- IC50 (second compound 0.1 µM): 15.6 nM
- IC50 (second compound 0.316 µM): 15.3 nM
- IC50 (second compound 1 µM): 13.2 nM
- IC50 (second compound 3.16 µM): 14.5 nM
- IC50 (second compound 10 µM): 24 nM
- viability, T/C (second compound 0.0316 µM, first compound 0.000999 µM): 95.6%
- viability, T/C (second compound 0.0316 µM, first compound 0.00316 µM): 78.4%
- viability, T/C (second compound 0.0316 µM, first compound 0.00999 µM): 55.4%
- viability, T/C [1]: 40.4%
- viability, T/C (second compound 0.0316 µM, first compound 0.0999 µM): 21.6%
- viability, T/C [2]: 5.95%
- viability, T/C (second compound 0.1 µM, first compound 0.000999 µM): 94.2%
- viability, T/C (second compound 0.1 µM, first compound 0.00316 µM): 81.8%
- viability, T/C (second compound 0.1 µM, first compound 0.00999 µM): 59.9%
- viability, T/C [3]: 33.8%
- viability, T/C (second compound 0.1 µM, first compound 0.0999 µM): 18.5%
- viability, T/C [4]: 7.59%
- viability, T/C (second compound 0.316 µM, first compound 0.000999 µM): 98%
- viability, T/C (second compound 0.316 µM, first compound 0.00316 µM): 82.3%
- viability, T/C (second compound 0.316 µM, first compound 0.00999 µM): 57.6%
- viability, T/C [5]: 34%
- viability, T/C (second compound 0.316 µM, first compound 0.0999 µM): 21.5%
- viability, T/C [6]: 5.15%
- viability, T/C (second compound 1 µM, first compound 0.000999 µM): 93.5%
- viability, T/C (second compound 1 µM, first compound 0.00316 µM): 77%
- viability, T/C (second compound 1 µM, first compound 0.00999 µM): 55.9%
- viability, T/C [7]: 31.4%
- viability, T/C (second compound 1 µM, first compound 0.0999 µM): 20.2%
- viability, T/C [8]: 5.78%
- viability, T/C (second compound 3.16 µM, first compound 0.000999 µM): 89.9%
- viability, T/C (second compound 3.16 µM, first compound 0.00316 µM): 77.6%
- viability, T/C (second compound 3.16 µM, first compound 0.00999 µM): 58.3%
- viability, T/C [9]: 31.9%
- viability, T/C (second compound 3.16 µM, first compound 0.0999 µM): 21.7%
- viability, T/C [10]: 7.69%
- viability, T/C (second compound 10 µM, first compound 0.000999 µM): 70.4%
- viability, T/C (second compound 10 µM, first compound 0.00316 µM): 67.4%
- viability, T/C (second compound 10 µM, first compound 0.00999 µM): 59%
- viability, T/C [11]: 48.2%
- viability, T/C (second compound 10 µM, first compound 0.0999 µM): 27.8%
- viability, T/C [12]: 14.2%

Structure (SMILES): COc1ncnc(C2CC2)c1-c1ncc2cnn(Cc3ccc(-c4nc(C(F)(F)F)cn4C(C)C)cc3)c2n1 + Cc1cnc(CNC(=O)c2c(=O)c3ccc(N4CCCN(C)CC4)nc3n3c2sc2ccccc23)cn1
- IC50 (second compound 0.0316 µM): > 10000 nM
- IC50 (second compound 0.1 µM): > 10000 nM
- IC50 (second compound 0.316 µM): < 31.6 nM
- IC50 (second compound 1 µM): < 31.6 nM
- IC50 (second compound 3.16 µM): < 31.6 nM
- IC50 (second compound 10 µM): < 31.6 nM
- viability, T/C [1]: 108%
- viability, T/C [13]: 80.5%
- viability, T/C [2]: 85.4%
- viability, T/C [14]: 81.6%
- viability, T/C [15]: 85.1%
- viability, T/C [16]: 86%
- viability, T/C [3]: 55.2%
- viability, T/C [17]: 58.1%
- viability, T/C [4]: 50%
- viability, T/C [18]: 64.1%
- viability, T/C [19]: 67.2%
- viability, T/C [20]: 70%
- viability, T/C [5]: 19.1%
- viability, T/C [21]: 19.9%
- viability, T/C [6]: 17.7%
- viability, T/C [22]: 22.1%
- viability, T/C [23]: 23.2%
- viability, T/C [24]: 18.1%
- viability, T/C [7]: 3.57%
- viability, T/C [25]: 3.77%
- viability, T/C [8]: 3.91%
- viability, T/C [26]: 3.85%
- viability, T/C [27]: 4.62%
- viability, T/C [28]: 7.3%
- viability, T/C [9]: 2.42%
- viability, T/C [29]: 2.35%
- viability, T/C [10]: 2.33%
- viability, T/C [30]: 2.58%
- viability, T/C [31]: 3.1%
- viability, T/C [32]: 2.88%
- viability, T/C [11]: 0.21%
- viability, T/C [33]: 0.29%
- viability, T/C [12]: 0.4%
- viability, T/C [34]: 0.43%
- viability, T/C [35]: 0.91%
- viability, T/C [36]: 0.42%

Structure (SMILES): CC1COCCN1c1cc(-c2ccnn2C)c2ccnc(-c3ccn[nH]3)c2n1 (stereo not drawn) + Cc1cnc(CNC(=O)c2c(=O)c3ccc(N4CCCN(C)CC4)nc3n3c2sc2ccccc23)cn1
- IC50 (second compound 0.0316 µM): < 31.6 nM
- IC50 (second compound 0.1 µM): < 31.6 nM
- IC50 (second compound 0.316 µM): < 31.6 nM
- IC50 (second compound 1 µM): < 31.6 nM
- IC50 (second compound 3.16 µM): < 31.6 nM
- IC50 (second compound 10 µM): < 31.6 nM
- viability, T/C [1]: 49.6%
- viability, T/C [13]: 33.7%
- viability, T/C [2]: 33.5%
- viability, T/C [14]: 31.8%
- viability, T/C [15]: 38.3%
- viability, T/C [16]: 41.4%
- viability, T/C [3]: 30.5%
- viability, T/C [17]: 25.8%
- viability, T/C [4]: 18.4%
- viability, T/C [18]: 23.6%
- viability, T/C [19]: 31%
- viability, T/C [20]: 32.4%
- viability, T/C [5]: 12.3%
- viability, T/C [21]: 6.9%
- viability, T/C [6]: 5.16%
- viability, T/C [22]: 5.25%
- viability, T/C [23]: 9.22%
- viability, T/C [24]: 16%
- viability, T/C [7]: 2.71%
- viability, T/C [25]: 2.88%
- viability, T/C [8]: 2.86%
- viability, T/C [26]: 2.6%
- viability, T/C [27]: 4.59%
- viability, T/C [28]: 8.81%
- viability, T/C [9]: 2.08%
- viability, T/C [29]: 3.98%
- viability, T/C [10]: 2.01%
- viability, T/C [30]: 1.59%
- viability, T/C [31]: 2.42%
- viability, T/C [32]: 5%
- viability, T/C [11]: 1.03%
- viability, T/C [33]: 0.7%
- viability, T/C [12]: 0.73%
- viability, T/C [34]: 0.54%
- viability, T/C [35]: 1.7%
- viability, T/C [36]: 2.18%

Structure (SMILES): O=c1[nH]cc(F)c(=O)[nH]1 + CN(C)c1ccc(Nc2c3ccc(NC(=O)CCN4CCCC4)cc3nc3cc(NC(=O)CCN4CCCC4)ccc23)cc1
- IC50 (second compound 0.0316 µM): 7510 nM
- IC50 (second compound 0.1 µM): 9410 nM
- IC50 (second compound 0.316 µM): 8130 nM
- IC50 (second compound 1 µM): 7140 nM
- IC50 (second compound 3.16 µM): 7560 nM
- IC50 (second compound 10 µM): 9080 nM
- viability, T/C [1]: 104%
- viability, T/C [13]: 96.8%
- viability, T/C [2]: 97%
- viability, T/C [14]: 88.7%
- viability, T/C [15]: 60.6%
- viability, T/C [16]: 46.5%
- viability, T/C [3]: 103%
- viability, T/C [17]: 105%
- viability, T/C [4]: 91.7%
- viability, T/C [18]: 86.4%
- viability, T/C [19]: 61.3%
- viability, T/C [20]: 50%
- viability, T/C [5]: 102%
- viability, T/C [21]: 96.7%
- viability, T/C [6]: 100%
- viability, T/C [22]: 83.7%
- viability, T/C [23]: 64.8%
- viability, T/C [24]: 46.7%
- viability, T/C [7]: 95.3%
- viability, T/C [25]: 91.8%
- viability, T/C [8]: 95.6%
- viability, T/C [26]: 77.7%
- viability, T/C [27]: 63.6%
- viability, T/C [28]: 44.6%
- viability, T/C [9]: 92.9%
- viability, T/C [29]: 80%
- viability, T/C [10]: 92.7%
- viability, T/C [30]: 75.1%
- viability, T/C [31]: 61.7%
- viability, T/C [32]: 46.3%
- viability, T/C [11]: 70.9%
- viability, T/C [33]: 78.9%
- viability, T/C [12]: 77.2%
- viability, T/C [34]: 74.4%
- viability, T/C [35]: 61.4%
- viability, T/C [36]: 49%

From PubChem BioAssay AID2060491 (Molecular Pharmacology Branch, DTP, NCI, 2025)
